Biological target: T1, NLRP3 inflammasome (Homo sapiens, UniProt Q96P20)
T1 construct: endogenous in cells; host or cells: THP-1 cells, PMA-differentiated and stimulated with LPS and ATP
Assay: THP-1 IL-1β production inhibition test
Format: cell-based
Conditions: PMA-treated THP-1 cells, LPS 50 ng/ml + ATP 5 mM, 2 hours, IL-1β in supernatant by ELISA
Protocol: Test Example 1: THP-1 IL-1β Production Inhibition Test
PMA (phorbol myristate acetate, SIGMA, P1585) was added to THP-1 cells in an amount of 50 ng/mL to culture the cells for 2 days at 37° C. The culture medium was replaced with a serum-free RPMI-1640 medium, and a compound with a known concentration was added thereto to culture the cells at 37° C. for 15 minutes. LPS (Lipopolysaccharide, SIMGA, L2880) and ATP (Adenosine triphosphate, SIGMA, A2383) were added so that final concentrations become 50 ng/ml and 5 mM, respectively, followed by culturing at 37° C. for 2 hours. The supernatants were collected to measure the concentrations of IL-1β by ELISA (DuoSet ELISA human IL-1β, R&D Systems, DY201). The IL-1β concentrations were plotted against log concentrations of test compounds, and an IC50 value was calculated by sigmoid Emax model nonlinear regression analysis.
Example compounds were confirmed to inhibit NLRP3 inflammasome activation and IL-1β production.

T1 sequence (Q96P20 whole entry): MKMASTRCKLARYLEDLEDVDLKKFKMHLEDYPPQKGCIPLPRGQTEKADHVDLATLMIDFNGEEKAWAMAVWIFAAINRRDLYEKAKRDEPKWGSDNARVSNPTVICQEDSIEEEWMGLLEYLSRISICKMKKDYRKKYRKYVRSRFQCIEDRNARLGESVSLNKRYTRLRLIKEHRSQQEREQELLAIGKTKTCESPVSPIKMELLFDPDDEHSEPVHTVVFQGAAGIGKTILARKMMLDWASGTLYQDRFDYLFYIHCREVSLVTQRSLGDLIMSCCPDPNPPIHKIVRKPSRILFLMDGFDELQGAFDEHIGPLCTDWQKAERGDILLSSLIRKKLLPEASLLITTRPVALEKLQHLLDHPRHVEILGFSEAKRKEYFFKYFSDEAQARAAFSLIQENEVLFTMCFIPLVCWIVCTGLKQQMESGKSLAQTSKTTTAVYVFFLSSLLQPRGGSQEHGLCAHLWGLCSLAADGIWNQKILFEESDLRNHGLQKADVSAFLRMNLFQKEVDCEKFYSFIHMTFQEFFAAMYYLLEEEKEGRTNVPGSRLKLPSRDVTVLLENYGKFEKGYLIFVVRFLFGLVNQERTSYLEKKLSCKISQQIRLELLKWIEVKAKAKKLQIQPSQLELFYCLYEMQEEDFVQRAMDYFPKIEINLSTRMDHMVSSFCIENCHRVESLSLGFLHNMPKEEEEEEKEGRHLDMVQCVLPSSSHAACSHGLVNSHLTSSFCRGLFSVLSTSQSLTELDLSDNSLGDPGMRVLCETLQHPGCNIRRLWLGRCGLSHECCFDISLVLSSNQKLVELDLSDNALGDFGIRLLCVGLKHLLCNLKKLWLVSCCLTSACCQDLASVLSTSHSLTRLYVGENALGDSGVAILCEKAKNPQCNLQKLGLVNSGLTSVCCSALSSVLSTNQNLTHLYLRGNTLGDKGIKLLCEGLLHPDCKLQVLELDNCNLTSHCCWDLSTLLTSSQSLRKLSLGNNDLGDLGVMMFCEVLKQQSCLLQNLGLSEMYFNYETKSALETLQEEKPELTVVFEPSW

Compound | IC50
Cc1c(-c2ccc(C(F)(F)F)cc2O)nnc2c1CCCN2[C@H]1CNC(=O)C1 [Example 15] | 780 nM
Cc1ccc(-c2nnc3c(c2C)CCCN3[C@@H]2CCCN(C)C2)c(O)c1 [Example 11] | 46 nM
Cc1c(-c2ccc(C(F)(F)F)cc2O)nnc2c1CCCN2[C@@H]1CCCC[C@H]1O [Example 1, 2-{8-[(1R,2R)-2-hydroxycyclohexyl]-4-methyl-5,6,7,8-tetrahydropyrido[2,3-c]pyridazin-3-yl}-5-(trifluoromethyl)phenol] | 16 nM
Cc1c(-c2ccc(C(F)(F)F)cc2O)nnc2c1COCCN2[C@@H]1CCCN(CC(F)F)C1 [Example 26] | 14 nM
Cc1c(-c2ccc(C(F)(F)F)cc2O)nnc2c1CN(C)CCN2[C@@H]1CCCC[C@H]1O [Example 7, 2-{9-[(1R,2R)-2-hydroxycyclohexyl]-4,6-dimethyl-6,7,8,9-tetrahydro-5H-pyridazino[3,4-e][1,4]diazepin-3-yl}-5-(trifluoromethyl)phenol] | 16 nM
Cc1c(-c2ccc(OC(F)(F)F)cc2O)nnc2c1CCCN2[C@@H]1CCCN(C)C1 [Example 10] | 49 nM
Cc1c(-c2ccc(C(F)(F)F)cc2O)nnc2c1CCN2[C@H]1CCNC1=O [Example 5, (3S)-3-{3-[2-hydroxy-4-(trifluoromethyl)phenyl]-4-methyl-5,6-dihydro-7H-pyrrolo[2,3-c]pyridazin-7-yl}pyrrolidin-2-one] | 13 nM
COc1ccc(-c2nnc3c(c2C)COCCN3[C@@H]2CCCN(C)C2)c(O)c1 [Example 6, 5-methoxy-2-{4-methyl-9-[(3R)-1 methylpiperidin-3-yl]-5,7,8,9-tetrahydropyridazino[3,4-e][1,4]oxaazepin-3-yl}phenol] | 14 nM
Cc1c(-c2ccc(C(F)(F)F)cc2O)nnc2c1CCCN2[C@@H]1CCCN(C)C1=O [Example 14] | 22 nM
Cc1c(-c2ccc(C(F)(F)F)cc2O)nnc2c1CCCN2[C@@H]1CCCNC1=O [Example 13] | 30 nM
CCN1CCC[C@@H](N2CCCc3c2nnc(-c2ccc(C(F)(F)F)cc2O)c3C)C1 [Example 3, 2-{8-[(3R)-1-ethylpiperidin-3-yl]-4-methyl-5,6,7,8-tetrahydropyrid[2,3-c]pyridazin-3-yl}-5-(trifluoromethyl)phenol] | 3 nM
CN[C@@H]1CCCC[C@H]1N1CCCc2c1nnc(-c1ccc(C(F)(F)F)cc1O)c2C [Example 17] | 410 nM
Cc1c(-c2ccc(C(F)(F)F)cc2O)nnc2c1COCCN2[C@@H]1CCCC[C@H]1O [Example 4, 2-{9-[(1R,2R)-2-hydroxycyclohexyl]-4-methyl-5,7,8,9-tetrahydropyridazino[3,4-e][1,4]oxaazepin-3-yl}-5-(trifluoromethyl)phenol] | 6.8 nM
Cc1c(-c2ccc(C(F)(F)F)cc2O)nnc2c1CCCN2[C@@H]1CCCN(C2COC2)C1 [Example 9] | 35 nM
CC(=O)N1CCC[C@@H](N2CCCc3c2nnc(-c2ccc(C(F)(F)F)cc2O)c3C)C1 [Example 8] | 26 nM
Cc1c(-c2ccc(C(F)(F)F)cc2O)nnc2c1CCCCN2[C@@H]1CCCC[C@H]1O [Example 12] | 44 nM

Continued, values first:

IC50 | Compound
190 nM | CC(=O)N1CCN([C@@H]2CCCC[C@H]2O)c2nnc(-c3ccc(C(F)(F)F)cc3O)c(C)c2C1 [Example 40, 1-{9-[(1R,2R)-2-hydroxycyclohexyl]-3-[2-hydroxy-4-(trifluoromethyl)phenyl]-4-methyl-5,7,8,9-tetrahydro-6H-pyridazino[3,4-e][1,4]diazepin-6-yl}ethan-1-one]
160 nM | CC(=O)O[C@@H]1CCCC[C@H]1N1CCN(C(C)=O)Cc2c1nnc(-c1ccc(C(F)(F)F)cc1O)c2C [Example 39, (1R,2R)-2-{6-acetyl-3-[2-hydroxy-4-(trifluoromethyl)phenyl]-4-methyl-5,6,7,8-tetrahydro-9H-pyridazino[3,4-e][1,4]diazepin-9-yl}cyclohexyl acetate]
30 nM | Cc1c(-c2ccc(C(F)F)cc2O)nnc2c1CN(C)CCN2[C@@H]1CCCC[C@H]1O [Example 44, 5-(difluoromethyl)-2-{9-[(1R,2R)-2-hydroxycyclohexyl]-4,6-dimethyl-6,7,8,9-tetrahydro-5H-pyridazino[3,4-e][1,4]diazepin-3-yl}phenol]
30 nM | Cc1c(-c2ccc(Cl)cc2O)nnc2c1COCCN2[C@@H]1CCCC[C@H]1O [Example 19]
250 nM | Cc1c(-c2ccc(C(F)(F)F)cc2O)nnc2c1CN(Cc1ccccc1)CCN2[C@@H]1CCCC[C@H]1O [Example 23]
230 nM | Cc1c(-c2ccc(C(F)(F)F)cc2O)nnc2c1CCCN2c1cc[nH]n1 [Example 43, 2-[4-methyl-8-(1H-pyrazol-3-yl)-5,6,7,8-tetrahydropyrido[2,3-c]pyridazin-3-yl]-5-(trifluoromethyl)phenol]
96 nM | COC(=O)N1CCC[C@@H](N2CCCc3c2nnc(-c2ccc(C(F)(F)F)cc2O)c3C)C1 [Example 32, (3R)-3-{3-[2-hydroxy-4-(trifluoromethyl)phenyl]-4-methyl-6,7-dihydropyrido[2,3-c]pyridazin-8(5H)-yl}piperidine-1-methyl carboxylate]
230 nM | Cc1c(-c2ccc(C(F)(F)F)cc2O)nnc2c1CNC(=O)N2[C@@H]1CCCC[C@H]1O [Example 37, 8-[(1R,2R)-2-hydroxycyclohexyl]-3-[2-hydroxy-4-(trifluoromethyl)phenyl]-4-methyl-5,8-dihydropyrimido[4,5-c]pyridazin-7 (6H)-one]
16 nM | COC1CCN([C@@H]2CCCC[C@H]2O)c2nnc(-c3ccc(C(F)(F)F)cc3O)c(C)c21 (stereo partly drawn) [Example 21]
26 nM | CCN1CCN([C@@H]2CCCC[C@H]2O)c2nnc(-c3ccc(C(F)(F)F)cc3O)c(C)c2C1 [Example 41, 2-{6-ethyl-9-[(1R,2R)-2-hydroxycyclohexyl]-4-methyl-6,7,8,9-tetrahydro-5H-pyridazino[3,4-e][1,4]diazepin-3-yl}-5-(trifluoromethyl)phenol]
11 nM | Cc1c(-c2ccc(C(F)(F)F)cc2O)nnc2c1CN(C)CN2[C@@H]1CCCC[C@H]1O [Example 36, 2-{8-[(1R,2R)-2-hydroxycyclohexyl]-4,6-dimethyl-5,6,7,8-tetrahydropyrimido[4,5-c]pyridazin-3-yl}-5-(trifluoromethyl)phenol]
13 nM | Cc1c(-c2ccc(OC(F)F)cc2O)nnc2c1CCCN2[C@@H]1CCOC[C@H]1O [Example 29, (3S,4R)-4-{3-[4-(difluoromethoxy)-2-hydroxyphenyl]-4-methyl-6,7-dihydropyrido[2,3-c]pyridazin-8(5H)-yl}oxan-3-ol]
60 nM | Cc1c(-c2ccc(C(F)(F)F)cc2O)nnc2c1CN(C)[C@H](C)CN2[C@@H]1CCCC[C@H]1O [Example 42]
28 nM | Cc1c(-c2ccc(OC(F)F)cc2O)nnc2c1CCN2[C@H]1CCNC1=O [Example 45, (3S)-3-{3-[4-(difluoromethoxy)-2-hydroxyphenyl]-4-methyl-5,6-dihydro-7H-pyrrolo[2,3-c]pyridazin-7-yl}pyrrolidin-2-one]
8.1 nM | Cc1c(-c2ccc(OC(F)F)cc2O)nnc2c1CCCN2[C@@H]1CCCC[C@H]1O [Example 28, 5-(difluoromethoxy)-2-{8-[(1R,2R)-2-hydroxycyclohexyl]-4-methyl-5,6,7,8-tetrahydropyrido[2,3-c]pyridazin-3-yl}phenol]
12 nM | Cc1c(-c2ccc(C(F)(F)F)cc2O)nnc2c1CCCN2[C@@H]1CCCN(C2CC2)C1 [Example 31, 2-{8-[(3R)-1-cyclopropylpiperidin-3-yl]-4-methyl-5,6,7,8-tetrahydropyrido[2,3-c]pyridazin-3-yl}-5-(trifluoromethyl)phenol]
40 nM | CC(=O)NCCCCN1CCOCc2c1nnc(-c1ccc(C(F)(F)F)cc1O)c2C [Example 25]
7.6 nM | Cc1c(-c2ccc(C(F)(F)F)cc2O)nnc2c1CNCCN2[C@@H]1CCCC[C@H]1O [Example 38, 2-{9-[(1R,2R)-2-hydroxycyclohexyl]-4-methyl-6,7,8,9-tetrahydro-5H-pyridazino[3,4-e][1,4]diazepin-3-yl}-5-(trifluoromethyl)phenol]
120 nM | Cc1c(-c2ccc(C(F)(F)F)cc2O)nnc2c1CCCN2[C@@H]1CC[C@H](C#N)C1 [Example 22]
55 nM | Cc1c(-c2ccc(C(F)(F)F)cc2O)nnc2c1CCCN2[C@@H]1CCCN(C(N)=O)C1 [Example 33, (3R)-3-{3-[2-hydroxy-4-(trifluoromethyl)phenyl]-4-methyl-6,7-dihydropyrido[2,3-c]pyridazin-8(5H)-yl}piperidin-1-carboxyamide]
44 nM | Cc1c(-c2ccc(C(F)(F)F)cc2O)nnc2c1CCN2[C@H]1C[C@@](C)(O)C1 [Example 35, 2-{7-[(1s,3s)-3-hydroxy-3-methylcyclobutyl]-4-methyl-6,7-dihydro-5H-pyrrolo[2,3-c]pyridazin-3-yl}-5-(trifluoromethyl)phenol]
9.5 nM | Cc1c(-c2ccc(OC(F)F)cc2O)nnc2c1COCCN2[C@@H]1CCCC[C@H]1O [Example 30, 5-(difluoromethoxy)-2-{9-[(1R,2R)-2-hydroxycyclohexyl]-4-methyl-5,7,8,9-tetrahydropyridazino[3,4-e][1,4]oxaazepin-3-yl}phenol]
37 nM | Cc1c(-c2ccc(C(F)(F)F)cc2O)nnc2c1CCCN2[C@@H]1CCCN(S(C)(=O)=O)C1 [Example 34, 2-{8-[(3R)-1-(methansulfonyl)piperidin-3-yl]-4-methyl-5,6,7,8-tetrahydropyrido[2,3-c]pyridazin-3-yl}-5-(trifluoromethyl)phenol]

From patent US20260209233A1, “ANNULATED PYRIDAZINE DERIVATIVE” (Tenvie Therapeutics, Inc., priority 2022, published 2026)
